# Experimental data: US7291628B2, “Treatment of cocaine abuse using N-substituted derivatives of morphinan” (McLean Hospital Corporation, priority 2001, dated 2007)
# “Also recorded” adds a separate entry of the source.
# Legend:
# [1] = biological target: μ opioid receptor (Cavia porcellus, UniProt A0ACM8Q262); test: competitive binding assay with [3H]DAMGO in guinea pig brain membranes; details: for affinity for the μ opioid receptor, in words: comparator, if any, as in the value; for Ki: read-out: Ki, μ opioid receptor, [3H]DAMGO, guinea pig brain membranes
# [2] = biological target: T1, κ opioid receptor (Cavia porcellus, UniProt P41144); test: competitive binding assay with [3H]U69,593 in guinea pig brain membranes; details: for affinity for the κ opioid receptor, in words: comparator, if any, as in the value; for increase in affinity at the κ opioid receptor: relative to levorphanol; for κ/δ selectivity: κ versus δ binding
# T1 construct: from tissue; host or cells: guinea pig brain membranes
# [3] = biological target: T2, δ opioid receptor (Cavia porcellus, UniProt A0A286XTF2); test: competitive binding assay with [3H]naltrindole in guinea pig brain membranes
# T2 construct: from tissue; host or cells: guinea pig brain membranes
structure (smiles),measurement,setting,value
Oc1ccc2c(c1)[C@@]13CCCC[C@H]1[C@@H](C2)N(CCCF)CC3 [Compound 3],"affinity for the μ opioid receptor, in words",[1],high affinity
same,Ki,[1],0.18 nM
same,Ki,[2],0.083 nM
same,"affinity for the κ opioid receptor, in words",[2],high affinity
same,Ki,[3],0.85 nM
COCCN1CC[C@]23CCCC[C@H]2[C@H]1Cc1ccc(O)cc13 [Compound 6],"affinity for the μ opioid receptor, in words",[1],high affinity
same,Ki,[1],0.11 nM
same,Ki,[2],0.094 nM
same,"affinity for the κ opioid receptor, in words",[2],high affinity
"C=CCN1CC[C@]23CCCC[C@H]2[C@H]1Cc1ccc(O)cc13 [Compound 8, levallorphan, reference compound]","change in affinity for the μ opioid receptor, in words",[1]; relative to levorphanol,almost no changes in affinity
same,increase in affinity at the κ opioid receptor,[2],15 fold
same,"change in affinity for the δ opioid receptor, in words",[3]; relative to levorphanol,almost no changes in affinity
"I/C=C/CN1CC[C@]23CCCC[C@H]2[C@H]1Cc1ccccc13 [Compound 34, N-(3-iodoprop-(2E)-enyl)morphinan]","affinity for the μ opioid receptor, in words",[1],Ki values in the picomolar range; also recorded: very high affinity
same,"affinity for the κ opioid receptor, in words",[2],Ki values in the picomolar range; also recorded: very high affinity
same,decreased affinity for the κ opioid receptor,[2]; in comparison to compound 9,10 fold
same,decreased affinity for the δ opioid receptor,[3]; in comparison to compound 9,43 fold
"I/C=C\CN1CC[C@]23CCCC[C@H]2[C@H]1Cc1ccccc13 [Compound 35, N-(3-iodoprop-(2Z)-enyl)morphinan]",decreased affinity for the μ receptor,[1]; relative to 34,100 fold
same,decreased affinity for the κ receptor,[2]; relative to 34,17 fold
"Oc1ccc2c(c1)[C@@]13CCCC[C@H]1[C@@H](C2)N(CC1CCC1)CC3 [MCL-101, reference compound]","affinity for the μ opioid receptor, in words",[1],almost the same affinity for the μ and κ opioid receptors as cyclorphan
same,increase in affinity at the μ opioid receptor,[1]; relative to levorphanol,2 fold
same,"affinity for the κ opioid receptor, in words",[2],almost the same affinity for the μ and κ opioid receptors as cyclorphan
same,increase in affinity at the κ opioid receptor,[2],30 fold
same,κ/δ selectivity,[2],18 fold
same,increase in affinity at the δ opioid receptor,[3]; relative to levorphanol,3 fold
"Oc1ccc2c(c1)[C@@]13CCCC[C@H]1[C@@H](C2)N(CC1CC1)CC3 [cyclorphan, reference compound]",κ/δ selectivity,[2],4 fold
